Structures are written as SMILES.

The test concerns the target Gag-Pol polyprotein (Human immunodeficiency virus type 1 group M subtype B (isolate HXB2), UniProt P04585). The test is described as follows: RT Assay. To be noted: 37 °C. The procedure:
To a lysis buffer (20 μl), 4-6 ng recombinant HIV-1-RT was added in separate reaction tubes. Lysis buffer without HIV-1-RT was used as a negative control. Standards and test compound RT inhibitor (10 μg) were diluted with lysis buffer. This mixture was incubated for 1 h at 37 °C. For the number of micro plate modules to be used, enough foil bags were opened and micro plate modules were put into the frame in the correct orientation. The above samples were transferred to wells of microplate module. After addition it was covered with cover foil and incubated at 37 °C for 1 h. Solution was removed and rinsed five times with 250 μl of washing buffer per well for 30 s to each well. Then washing buffer was removed carefully. 200 μl of anti-DIG-POD working dilution was added to individual well and covered with cover foil and incubated at 37 °C for 1 h. Anti-DIG-POD working dilution solution was completely removed. Microplate module were washed five times for 30 s with washing buffer 250 μl and removed. 200 μl of ABTS substrate solution was added to individual well and incubated between 15 °C and 25 °C till (15−30 min) green color was obtained.
As to `CC1=C(C(=O)NC(=O)CN2C(=O)C(=O)c3ccccc32)C(c2ccc(Cl)cc2)NC(=O)N1` (stereo not given) [4-(4-Chlorophenyl)-N-(2-(2,3-dioxoindolin-1-yl)acetyl)-6-methyl-2-oxo-1,2,3,4-tetrahydro pyrimidine-5-carboxamide (9h)], the 50% inhibitory concentration (IC50) is above 100 nM.

On to `CC1=C(C(=O)NC(=O)CN2C(=O)C(=O)c3ccccc32)C(C)NC(=O)N1` (stereo not given) [N-(2-(2,3-Dioxoindolin-1-yl)acetyl)-4,6-dimethyl-2-oxo-1,2,3,4-tetrahydropyrimidine-5-carboxamide (9c)], for which half-maximal inhibition (IC50) required 64 nM.

Compound `CCC1NC(=O)NC(C)=C1C(=O)NC(=O)CN1C(=O)C(=O)c2ccccc21` (stereo not given) [N-(2-(2,3-Dioxoindolin-1-yl)acetyl)-4-ethyl-6-methyl-2-oxo-1,2,3,4-tetrahydropyrimidine-5-carboxamide (9d)] displayed a concentration for half-maximal inhibition (IC50) of 67 nM.

The compound `CCCC1NC(=O)NC(C)=C1C(=O)NC(=O)CN1C(=O)C(=O)c2ccccc21` (stereo not given) [N-(2-(2,3-Dioxoindolin-1-yl)acetyl)-6-methyl-2-oxo-4-propyl-1,2,3,4-tetrahydropyrimidine-5-carboxamide (9e)] registered an IC50 above 100 nM.

Take `Cc1cc(/C=C/C#N)cc(C)c1Nc1ccnc(Nc2ccc(C#N)cc2)n1` [Rilpivirine]: the half-maximal inhibitory concentration (IC50) is 68 nM.

As a reminder, the IC50 is the concentration needed to halve the response being measured.

The values are drawn from BindingDB's records for doi:10.1016/j.bioorg.2017.01.006 (Jaipur National University, 2017).
